Measured values reported in patent US6965021B2, “Feedback-resistant pyruvate carboxylase gene from corynebacterium” (Archer-Daniels-Midland Company, priority 2000, dated 2005).
Read-outs that look alike come from different tables or passages of the source.

How the values were obtained:
[1] = molecular target: Corynebacterium glutamicum NRRL B-11474 (BF100) pyruvate carboxylase, feedback-resistant variant (M1V, E153D, A182S, A206S, H227R, A455G, D1120E), SEQ ID NO:2 (Corynebacterium glutamicum, UniProt H7C7K2, A182S/A206S/A455G/D1120E/E153D/H227R/M1V)
Method: (§1) Pyruvate carboxylate and phosphoenol pyruvate carboxylate assays were performed with permeabilized cells prepared by the following method. Log phase cells were harvested by centrifugation for 10 min at 5000×g at 4° C. and washed with 20 ml of the ice-cold washing buffer (50 mM Tris/HCl [pH 6.3] containing 50 mM NaCl). The cell pellet was resuspended in an ice-cold Hepes buffer (100 mM Hepes [pH 7.5] containing 20% Glycerol) to reach a final concentration of 25 g dry cell weight/liter. Resuspended cells were permeabilized by adding 30 μl of a 10% Hexadecyltrimethyl-ammonium bromide (CTAB) (w/v) solution to 1 ml of cells to give a final concentration of 0.3% (CTAB)(v/v).
The reaction was started at 30° C. with the addition of 10 μl of the permeabilized cell suspension, and the formation of DTNB-thiophenolate was followed over time at 412 nm. Relevant standards and controls were carried out in the same manner.
To account for the intrinsic loss of OAA during the experiment, a continuous assay was carried out by coupling the two-reaction assay to a one-reaction assay in presence of an excess of citrate synthase. The amount of permeabilized cells added in the assay was optimized to obtain a detectable activity, with the lowest possible background absorbency due to the presence of cells.
Pyruvate carboxylase activity was determined as a function of various concentrations of its substrates: pyruvate, bicarbonate and ATP (FIG. 3). Based on the data generated, the affinity constants of pyruvate carboxylase for its substrates were determined (Table 2).
To determine the effect of aspartate on the activity of pyruvate carboxylase, aspartate was added at different concentrations in the spectrophotometer cuvette and enzyme activities were measured. As a comparison, the same experiment was carried out with PEPC in ATCC 21253 (FIG. 5).
Pyruvate carboxylase activity was measured in the presence of different concentrations of acetyl-CoA (FIG. 6). […] The effect of acetyl-CoA on citrate synthase itself was studied also.

[2] = molecular target: T1, Corynebacterium glutamicum ATCC 21253 phosphoenol pyruvate carboxylase (PEPC) (Corynebacterium glutamicum, UniProt P12880); test: Phosphoenol pyruvate carboxylase assay (permeabilized cells), ATCC 21253; assay type: biochemical; settings: no concentration stated
T1 sequence (P12880 1-919): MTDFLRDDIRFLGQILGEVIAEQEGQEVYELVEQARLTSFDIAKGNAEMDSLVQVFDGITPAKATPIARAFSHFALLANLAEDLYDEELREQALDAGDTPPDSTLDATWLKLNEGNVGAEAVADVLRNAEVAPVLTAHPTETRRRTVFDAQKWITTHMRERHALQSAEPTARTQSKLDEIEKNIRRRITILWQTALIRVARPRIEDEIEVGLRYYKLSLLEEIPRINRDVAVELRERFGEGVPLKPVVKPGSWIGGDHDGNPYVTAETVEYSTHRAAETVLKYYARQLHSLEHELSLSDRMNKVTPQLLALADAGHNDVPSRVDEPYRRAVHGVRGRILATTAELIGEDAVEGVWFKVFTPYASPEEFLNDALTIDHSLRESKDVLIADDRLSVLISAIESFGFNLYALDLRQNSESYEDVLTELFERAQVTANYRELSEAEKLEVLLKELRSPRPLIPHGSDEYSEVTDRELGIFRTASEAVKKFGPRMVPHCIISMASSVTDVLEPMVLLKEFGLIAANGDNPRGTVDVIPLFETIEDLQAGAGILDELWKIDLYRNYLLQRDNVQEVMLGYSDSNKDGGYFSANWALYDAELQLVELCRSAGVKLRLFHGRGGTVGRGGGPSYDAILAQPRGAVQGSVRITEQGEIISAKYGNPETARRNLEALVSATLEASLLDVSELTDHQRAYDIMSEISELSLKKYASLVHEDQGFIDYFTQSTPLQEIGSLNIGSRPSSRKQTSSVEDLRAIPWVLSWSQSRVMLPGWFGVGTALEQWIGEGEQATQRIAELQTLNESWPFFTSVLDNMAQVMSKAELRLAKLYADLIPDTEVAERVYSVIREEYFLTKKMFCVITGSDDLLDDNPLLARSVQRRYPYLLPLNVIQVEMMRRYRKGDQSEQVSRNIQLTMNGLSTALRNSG
Method: as §1
For determination of phosphoenol pyruvate carboxylase activity, the assay mixture contained 10 mM phosphoenol pyruvate, 14 mM KHCO3, 4 mM MgCl2, 50 μmole acetyl-CoA, 0.3 mg bovine serum albumin, 0.055 U citrate synthase and 50 mM sodium phosphate buffer ([pH 7.5] containing 0.1 mg 5,5′-Dithio-bis(2-nitrobenzoic acid) (DTNB)) in a final volume of 1 ml. The reaction was carried out in the same conditions described for the pyruvate carboxylase assay.
Aspartate inhibits phosphoenol pyruvate carboxylase (PEPC) activity. To determine the effect of aspartate on the activity of pyruvate carboxylase, aspartate was added at different concentrations in the spectrophotometer cuvette and enzyme activities were measured. […]

N[C@@H](CC(=O)O)C(=O)O [aspartate, aspartic acid]
effect of aspartate on pyruvate carboxylase activity ([1]; 0-30 mM aspartate): activated
effect of aspartate on pyruvate carboxylase activity ([1]; 30-100 mM aspartate): inhibited
inhibition of PEPC by aspartate [2]: strongly inhibited
